Reference: patent US20260193149A1, “[…] USEFUL MINERAL AMINO ACID COMPLEXES” (Statera Ag, LLC, priority 2022, published 2026)
Where “and” joins values, the source holds several entries; their conditions need not be identical. Equal values may be shown once.

Tests used:
corn [1] = test: Boron absorption into corn leaf after foliar application, growth stage V5 (Example 4)
Description: Each solution was applied independently of one another at these rates, and the applications emulated commercial application conditions, with 30-inch spacings. The test solutions were applied to three different fields to allow for data replication. The corn was at growth stage V5 during the test. Each test solution was evenly applied using a portable foliar applicator ([…] M18 sprayer with a four-gallon tank). Application time per row was recorded to allow for the calculation of an average application rate of the applicator. Any remaining application solution was weighed to allow for the exact calculation of applied solution per acre (converted below to ounces per acre). The solution application rates are reported below in Table 11 and boron application rates are reported below in Table 12. Applications were done in the heat of the day (96° F.), with minimal wind to preclude drift. Control strips for each product at both application rates were identified, and tissue samples from the control strips were collected to reflect an application rate of 0.00 ounces of product per 68 ounces of water.
Tissues were collected after two days using standard tissue collection procedures. Twelve top collar leaves were collected per row. The leaf samples were placed in paper bags and sent to a commercial lab for leaf mineral analysis using ICP-AA.
The application rates reported above Table 11 were adjusted by the concentration of the applied product so that the data could be compared on an equivalent basis, which are reported in Table 12. Tissue boron was regressed against the adjusted applied rates using the Fit Y×X model of SAS JMP (v. 15.0). The Experimental Unit was Field.
Five chemical compounds containing boron were evaluated. The slope of the line was defined according to the following equation: […]

corn [2] = test: Boron absorption into corn leaf after foliar application, growth stage V7 (Example 5); format: in vivo; settings: leaves collected after two days
Description: The same procedure of Example 4 was followed for this Example, and the same application solutions at rate 2 were used and applied to three separate fields of corn at growth stage V7.
Twelve top collar leaves were collected per row.
Tissue boron data were analyzed using the Fit Y×X module of SAS JMP (v. 15.0). The tissue data were compared using the Oneway Analysis option. Means for boric acid and boron lysinate were separated using the Student's t-test.

[3] = corn V5, foliar application, top collar leaves collected after two days, slope of tissue boron vs applied boron

B Absorption, ppm/oz applied B (corn [1]; corn, in vivo, 2 days) | increase of corn tissue boron for every ounce of boron applied (corn [1]; corn, in vivo, 2 days) | Compound | decrease of boron absorbed into leaf tissue compared to boric acid (corn [1]; corn V5, Example 4) | B Absorption, ppm/oz applied B (corn [1]; [3]) | boron absorption greater than boric acid (corn [1]; corn V5, Example 4) | increase of corn tissue boron for every ounce of boron applied (corn [1]; corn V5, Example 4, per ounce applied boron) | Boron Absorption, ppm/oz B (corn [2]) | Boron Absorption, ppm/oz B (corn [2]; listed as boron lysinate)
– | – | ethanolamine boron [Boron ethanolamine, reference compound] | 0.45 ppm | 4.13 ppm/oz applied B | – | – | – | –
– | – | boron lysinate | – | 7.66 ppm/oz applied B | 3.92 ppm and 3.08 ppm | 7.66 ppm | 13.13 ppm/oz B and 13.13^b ppm/oz B | 13.13 ppm/oz B
4.58 ppm/oz applied B | 4.58 ppm | OB(O)O [Boric acid, boric acid, reference compound] | – | – | – | – | – | –
